Results reported in US20250170136A1, “1,2,4-TRIAZIN-3(2H)-ONE COMPOUNDS FOR THE TREATMENT OF HYPERPROLIFERATIVE DISEASES” (BAYER AKTIENGESELLSCHAFT, priority 2019, published 2025).
Marks after values point to notes of the source that are not given here.

Test system: IGR-37 melanoma xenograft
Experiment: In vivo xenotransplantation model of human cancer
Design: species or system mice
Details: for T/C: IGR-37 Melanoma, mean final tumor weight treatment vs control, study end
Source text: The anti-tumor activity of Example 1, ((5S)-5-methyl-6-{3-(trifluoromethyl)-4-[3-(trifluoromethyl)-1H-pyrazol-1-yl]phenyl}-4,5-dihydro-1,2,4-triazin-3(2H)-one), was examined in murine xenotransplantation models of human cancer. For this purpose, mice were implanted subcutaneously with tumor cells. At a mean tumor size of 20-40 mm^2 animals were randomized into treatment and control groups (at least n=10 animals/group) and treatment started with vehicle only or Example 1 (formulation: 90% PEG400/10% Ethanol; application route: per os (“p.o.”), orally). The oral application volume was 10 ml/kg. In the case of twice daily treatments, the time interval between two applications per day was 6-7 h. The tumor size and the body weight were determined at least weekly. The tumor area was detected by means of an electronic caliper [length (mm)×width (mm)]. The experiment was ended when the tumors of the vehicle control reached the pre-determined ethical endpoint based on German and European animal welfare regulations. In vivo anti-tumor efficacy is presented as T/C ratio at study end (Treatment/Control; mean tumor area or weight of treatment group/mean tumor area or weight of control group) in Table 7. A compound having a T/C below 0.5 is defined as active (i.e., effective). Statistical analysis was assessed using SigmaStat software. A one-way analysis of variance was performed and differences to the control were compared by a pair-wise comparison procedure (Dunn's method).

## C[C@@H]1NC(=O)NN=C1c1ccc(-n2ccc(C(F)(F)F)n2)c(C(F)(F)F)c1 [Example 1, (5S)-5-methyl-6-{3-(trifluoromethyl)-4-[3-(trifluoromethyl)-1H-pyrazol-1-yl]phenyl}-4,5-dihydro-1,2,4-triazin-3(2H)-one]
1 mg/kg 2QD p.o.
  T/C: 0.06 *
2 mg/kg 2QD p.o.
  T/C: 0.06 *
4 mg/kg 2QD p.o.
  T/C: 0.06 *
4 mg/kg QD p.o.
  T/C: 0.07 *
Xenograft model of human tumors, melanoma, monotherapy
  anti-tumor efficacy (reduction of tumor area): effective in reduction of tumor area in melanoma
